Measurements: patent US11607421B2, “Ethanolamine-based lipid biosynthetic compounds, method of making and use thereof” (Metanoi Therapeutics, Inc., priority 2016, dated 2023)
pIC50: −log10 of the molar value. Converted amounts (≈) assume the structure as drawn.

How the values were obtained:
[1] = Stability in simulated intestinal fluid (SIF); type: in vitro ADME; settings: 10 μM, SIF pH 6.8, over time (to 120 min)
Protocol: Samples (100 μl) were drawn at 0, 15, 30 and 60 min from SGF reaction-vials and at 0, 30, 60 and 120 min from SIF reaction-vials, quenched with acetonitrile, vortex-mixed, and centrifuged before supernatant analysis by LC-MS/MS analysis. […] For PK studies, a sparse sampling design with 3 mice per time point was used to collect blood samples at 5, 10, 15, 30 min and 1, 2, 3, 4, 5 and 6 h in K2EDTA-coated tubes. The pharmacokinetic parameters (AUClast, Cmax, CL and Vss) were calculated using non-compartmental analysis tool of Phoenix WinNonlin software (version 6.3).
Given the extreme pH and various digestive enzymes, the GI tract presents a harsh environment to any ingested xenobiotic. Thus, many potential drug candidates are degraded in the GI tract, explaining their decreased bioavailability or inability to reach the target at effective concentrations. Simulated gastric fluid (SGF; pH 1.2) and simulated intestinal fluid (SIF; pH 6.8) closely mimic the GI tract environment and are amenable in vitro systems to evaluate degradation of a compound in GI tract (US Pharmacopoia).
Simulated gastric fluid was prepared as per U.S. Pharmacopeia (USP) methods. Sodium chloride (2 g) and pepsin (3.2 g, from porcine stomach mucosa) were dissolved in 7.0 ml hydrochloric acid and Milli-Q water to make up the volume to 1000 ml and the pH was adjusted to 1.2. […]

[2] = set-up: species or system BALB/c mice; settings: mouse, in vivo, 40 mg/kg
Protocol: Mice were sacrificed after 24, 48 h and 1, 2, 3, 4 weeks and spleens were collected. Total splenocytes were counted after lysis of RBC with RBC lysis buffer. After this, splenocytes where incubated with anti-CD16/CD32 antibody to block Fc receptors and then labeled with anti-CD3-APC, anti-CD4-Alexa488, anti-CD8-Alexa488, anti-DX5-FITC, or anti-CD19-FITC antibodies according to the manufacturer's instructions. Labeled cells were analyzed by flow cytometry using an LSRFortessa Flow cytometer (BD Biosciences, CA). Data from this analysis was analyzed using FlowJo software (TreeStar, OR).

[3] = tested on: PC-3 cells; assay: MTT cell proliferation assay; type: cell-based, human
Protocol: (§1) Next, a clonogenic cell survival assay was performed to assess the reproductive capacity of cells upon drug removal.
(§2) After 48 h, drug containing medium was replaced by medium containing MTT (tetrazolium bromide) at a concentration of 0.5 mg/ml. The yellow tetrazolium salt is reduced to insoluble purple formazan by viable cells. After 4 h of incubation in dark, formazan crystals produced by viable cells were dissolved by 200 μl DMSO and the amount of formazan crystals formed was quantified by recording the absorbance at 570 nm using multi-well plate reader. […] After 10 days, colonies were fixed with 4% formaldehyde, stained with crystal violet and counted.

[4] = tested on: PC-3 cells; assay: Clonogenic cell survival (colony) assay; type: cell-based, human; settings: 2 mg/ml, 48 h treatment, colonies after 10 days
Protocol: as §1, §2

[5] = tested on: RWPE-1; assay: MTT cell proliferation assay, normal prostate cells; type: cell-based; settings: 0.5 mg/ml Etn, 48 h
Protocol: as §2

[6] = in vivo; set-up: species or system SD rats; settings: SD, rat, po, 40 mg/kg
Source text: These formulations differ in pH and/or acid used to adjust the pH.

[7] = tested on: PC-3 cells; assay: Oxygen consumption rate (OCR), oxygen electrode; type: cell-based, human; settings: 2 mg/ml Etn, 48 h, 1×10^6 cells/ml
Protocol: OCR was measured using an oxygen electrode.
OCRs were measured using a computer-interfaced oxygen electrode (Hansatech Instruments, Inc., Norfolk, England) by monitoring the initial rate of oxygen consumption at 37° C. and atmospheric oxygen concentration (230 μM O2).

[8] = target: CYP2A6 (Homo sapiens, UniProt P11509); assay: CYP inhibition in human liver microsomes
[9] = target: CYP2C9 (Homo sapiens, UniProt P11712); assay: CYP inhibition in human liver microsomes
Chain of CYP2C9 (P11712 whole entry): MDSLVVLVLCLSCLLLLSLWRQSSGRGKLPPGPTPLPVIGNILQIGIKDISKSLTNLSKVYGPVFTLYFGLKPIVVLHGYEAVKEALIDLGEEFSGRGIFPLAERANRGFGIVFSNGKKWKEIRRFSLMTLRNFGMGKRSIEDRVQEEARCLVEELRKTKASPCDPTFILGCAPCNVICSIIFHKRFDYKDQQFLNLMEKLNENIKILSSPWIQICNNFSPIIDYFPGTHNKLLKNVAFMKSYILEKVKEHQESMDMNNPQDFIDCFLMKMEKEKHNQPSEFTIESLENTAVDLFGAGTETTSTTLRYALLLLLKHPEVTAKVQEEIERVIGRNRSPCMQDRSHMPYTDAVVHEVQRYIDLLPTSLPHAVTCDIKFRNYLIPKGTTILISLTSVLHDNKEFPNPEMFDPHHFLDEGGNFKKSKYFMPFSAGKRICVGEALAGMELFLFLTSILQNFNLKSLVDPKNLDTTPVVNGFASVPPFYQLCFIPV

Chain of CYP2A6 (P11509 whole entry): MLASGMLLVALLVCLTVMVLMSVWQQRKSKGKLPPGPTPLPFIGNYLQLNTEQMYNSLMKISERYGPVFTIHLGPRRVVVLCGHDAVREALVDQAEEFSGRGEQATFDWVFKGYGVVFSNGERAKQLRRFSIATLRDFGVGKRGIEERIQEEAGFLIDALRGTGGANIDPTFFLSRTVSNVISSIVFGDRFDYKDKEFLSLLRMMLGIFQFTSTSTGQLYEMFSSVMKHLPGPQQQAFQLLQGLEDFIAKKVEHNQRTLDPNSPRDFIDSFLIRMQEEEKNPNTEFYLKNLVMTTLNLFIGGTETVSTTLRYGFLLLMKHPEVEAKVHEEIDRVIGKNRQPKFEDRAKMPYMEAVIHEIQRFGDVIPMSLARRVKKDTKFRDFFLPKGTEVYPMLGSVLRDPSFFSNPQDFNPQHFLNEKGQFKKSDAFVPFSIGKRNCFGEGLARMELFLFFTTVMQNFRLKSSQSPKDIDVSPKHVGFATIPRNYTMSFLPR

**Q.** Which results are given for NCCO [Etn, monoethanolamine]?
**A.** stability in SIF [1]: remained unchanged; immunotoxicities [2]: does not induce immunotoxicities; Etn-induced cell death with HIF1-α stabilization ([3]; 35 μg/mL DMOG pre-treatment 4 h, then 1 and 2 mg/ml Etn with DMOG 48 h): more effective in reducing survival in PC-3 cells; reduction of cell survival ([3]; 0.5 mg/ml Etn, 48 h, pH 7.4 (siRNA experiment)): ~38%; reduction of survival ([3]; 0.5 mg/ml Etn, 48 h, range given for PC-3, DU145 and C4-2B together): 30-52%; reduction in cell proliferation ([3]; 1 mg/ml Etn alone, 48 h, pH 7.4): ~33%; reduction in cell proliferation ([3]; 1 mg/ml Etn in the presence of 1 μM CKI, 48 h, pH 7.4): ~17%; IC50 ([3]; Homo sapiens, PC-3, 48 h, pH 7.4, MTT, 48 h, pH 7.4, read-out: half-maximal concentration (IC50)): ~880 µg/mL (≈ 14.4 mM); half-maximal concentration (IC50) ([3]; MTT, 48 h, pH 7.4): 880 µg/mL; decrease in colony numbers compared to control cells [4]: ~97%; reduction of survival [5]: remained unaffected; Tmax ([6]; female, pH 5): 19.8 min; AUC(0-t) ([6]; female, pH 5, AUClast): 33800 ng·h/mL; Cmax ([6]; female, pH 5, Cmax): 24100 ng/mL; Tmax ([6]; female, pH 7.4): 19.8 min; AUC(0-t) ([6]; female, pH 7.4, AUClast): 29000 ng·h/mL; Cmax ([6]; female, pH 7.4, Cmax): 25000 ng/mL; Tmax ([6]; male, pH 5): 19.8 min; AUC(0-t) ([6]; male, pH 5, AUClast): 29500 ng·h/mL; Cmax ([6]; male, pH 5, Cmax): 27100 ng/mL; Tmax ([6]; male, pH 7.4): 19.8 min; AUC(0-t) ([6]; male, pH 7.4, AUClast): 27300 ng·h/mL; Cmax ([6]; male, pH 7.4, Cmax): 23700 ng/mL; reduction of OCR compared to controls [7]: ~26%; pIC50 [8]: < 4.00; pIC50 [9]: < 4.00
